Patent US8551999B2, “Heterocyclic compound and pharmaceutical composition thereof” (Otsuka Pharmaceutical Co., Ltd., priority 2007, dated 2013)

SMILES | melting point
CN(c1ccc(Oc2ccc3cc(C(=O)N4CCN(Cc5ccc(OCC(F)(F)F)cc5)CC4)n(C)c3c2)nc1)S(=O)(=O)c1ccc(Cl)c(Cl)c1 [Example 68, 3,4-Dichloro-N-methyl-N-[6-(1-methyl-2-{4-[4-(2,2,2-trifluoro-ethoxy)benzyl]piperazine-1-carbonyl}-1H-indol-6-yloxy)pyridin-3-yl]benzenesulfonamide] | 165.9 to 167.2 °C
Cc1ccc(S(=O)(=O)Nc2ccc(Oc3ccc4cc(C(=O)N5CCN(Cc6ccc(OCC(F)(F)F)cc6)CC5)n(C)c4c3)nc2)cc1 [Example 71, 4-Methyl-N-[6-(1-methyl-2-{4-[4-(2,2,2-trifluoroethoxy)benzyl]-piperazine-1-carbonyl}-1H-indol-6-yloxy)pyridin-3-yl]benzene-sulfonamide] | 198.3 to 200.3 °C
Br.Cn1c(C(=O)N2CCN(Cc3ccc(OCC(F)(F)F)cc3)CC2)cc2ccc(Oc3ccc(NS(C)(=O)=O)cn3)cc21 [Example 76, N-[6-(1-Methyl-2-{4-[4-(2,2,2-trifluoroethoxy)benzyl]piperazine-1-carbonyl}-1H-indol-6-yloxy)pyridin-3-yl]methanesulfonamide hydrobromide] | 237.8 to 240.1 °C
Br.Cc1cc(Oc2ccc3cc(C(=O)N4CCN(Cc5ccc(OCC(F)(F)F)cc5)CC4)n(C)c3c2)ncc1N(C)S(C)(=O)=O [Example 78, N-Methyl-N-[4-methyl-6-(1-methyl-2-{4-[4-(2,2,2-trifluoroethoxy)-benzyl]piperazine-1-carbonyl}-1H-indol-6-yloxy)pyridin-3-yl]-methanesulfonamide hydrobromide] | 235.8 to 237.8 °C
Cn1c(C(=O)N2CCN(Cc3ccc4c(c3)OCO4)CC2)cc2cc(Oc3ccc(NC(=O)c4ccc(-n5cccc5)nc4)cn3)ccc21 [Example 225, N-{6-[2-(4-Benzo[1,3]dioxol-5-ylmethylpiperazine-1-carbonyl)-1-methyl-1H-indol-5-yloxy]pyridin-3-yl}-6-pyrrol-1-ylnicotinamide] | 155 to 158 °C
COc1ccc(CN2CCN(C(=O)c3cc4cc(Oc5ccc(NC(=O)c6ccc(-n7cccc7)nc6)cn5)ccc4n3C)CC2)cc1 [Example 226, N-(6-{2-[4-(4-Methoxybenzyl)piperazine-1-carbonyl]-1-methyl-1H-indol-5-yloxy}pyridin-3-yl)-6-pyrrol-1-ylnicotinamide] | 194 to 195 °C
COc1ccc(CN2CCN(C(=O)c3cc4cc(Oc5ccc(N(C)C(=O)c6ccc(-n7cccc7)nc6)cn5)ccc4n3C)CC2)cc1.O=C(O)C(=O)O.O=C(O)C(=O)O [Example 227, N-(6-{2-[4-(4-Methoxybenzyl)piperazine-1-carbonyl]-1-methyl-1H-indol-5-yloxy}pyridin-3-yl)-N-methyl-6-pyrrol-1-ylnicotinamide dioxalate] | 185 to 187 °C
Br.COc1ccc(CN2CCN(C(=O)c3cc4cc(Oc5ccc(NC(=O)c6cc7cc(Br)ccc7[nH]6)cn5)ccc4n3C)CC2)cc1 [Example 228, 5-Bromo-1H-indole-2-carboxylic acid (6-{2-[4-(4-methoxybenzyl)-piperazine-1-carbonyl]-1-methyl-1H-indol-5-yloxy}pyridin-3-yl)-amide hydrobromide] | 263 to 265 °C
COc1ccc(CN2CCN(C(=O)c3cc4cc(Oc5ccc(N(C)C(=O)c6cc7cc(Br)ccc7[nH]6)cn5)ccc4n3C)CC2)cc1.O=C(O)/C=C\C(=O)O [Example 229, 5-Bromo-1H-indole-2-carboxylic acid (6-{2-[4-(4-methoxybenzyl)-piperazine-1-carbonyl]-1-methyl-1H-indol-5-yloxy}pyridin-3-yl)-methylamide maleate] | 205 to 207 °C
CS(=O)(=O)O.CS(=O)(=O)O.Cc1c(Oc2ccc(NC(=O)c3ccc(C(F)(F)F)cc3)cn2)ccc2c1cc(C(=O)N1CCN(Cc3ccccn3)CC1)n2C [Example 234, N-{6-[1,4-Dimethyl-2-(4-pyridin-2-ylmethylpiperazine-1-carbonyl)-1H-indol-5-yloxy]pyridin-3-yl}-4-trifluoromethylbenzamide bismethanesulfonate] | 149 to 150 °C
Cn1c(C(=O)N2CCN(Cc3ccccn3)CC2)cc2ccc(Oc3ccc(NC(=O)c4ccc(C(F)(F)F)cc4)cn3)cc21.O=C(O)C(=O)O.O=C(O)C(=O)O [Example 236, N-{6-[1-Methyl-2-(4-pyridin-2-ylmethylpiperazine-1-carbonyl)-1H-indol-6-yloxy]pyridin-3-yl}-4-trifluoromethylbenzamide dioxalate] | 176 to 178 °C
Cn1c(C(=O)N2CCN(Cc3ccccn3)CC2)cc2cccc(Oc3ccc(NC(=O)c4ccc(C(F)(F)F)cc4)cn3)c21.O=C(O)C(=O)O.O=C(O)C(=O)O [Example 243, N-{6-[1-Methyl-2-(4-pyridin-2-ylmethylpiperazine-1-carbonyl)-1H-indol-7-yloxy]pyridin-3-yl}-4-trifluoromethylbenzamide dioxalate] | 121 to 123 °C
Br.Cn1c(C(=O)N2CCN(Cc3ccccn3)CC2)cc2c(Oc3ccc(NC(=O)c4ccc(C(F)(F)F)cc4)cn3)cccc21 [Example 246, N-{6-[1-Methyl-2-(4-pyridin-2-ylmethylpiperazine-1-carbonyl)-1H-indol-4-yloxy]pyridin-3-yl}-4-trifluoromethylbenzamide hydrobromide] | 186 to 189 °C
Br.Cn1c(C(=O)N2CCN(Cc3ccc(OC(F)F)cc3)CC2)cc2ccc(Oc3ccc(NC(=O)c4ccc(Cl)c(Cl)c4)cn3)cc21 [Example 254, 3,4-Dichloro-N-(6-{2-[4-(4-difluoromethoxybenzyl)piperazine-1-carbonyl]-1-methyl-1H-indol-6-yloxy}pyridin-3-yl)benzamide hydrobromide] | 249 to 253.7 °C

Next, values leading:

melting point | SMILES
210 to 212 °C | Br.Cn1c(C(=O)N2CCN(Cc3ccc4c(c3)OCO4)CC2)cc2cc(Oc3ccc(NS(=O)(=O)c4ccc(C(F)(F)F)cc4)cn3)ccc21 [Example 65, N-{6-[2-(4-Benzo[1,3]dioxol-5-ylmethylpiperazine-1-carbonyl)-1-methyl-1H-indol-5-yloxy]pyridin-3-yl}-4-trifluoromethylbenzene-sulfonamide hydrobromide]
241 to 243 °C | Br.Br.COc1ccc(CN2CCN(C(=O)c3cc4cc(Oc5ccc(NC(=O)c6ccc(C(F)(F)F)cn6)cn5)ccc4n3C)CC2)cc1 [Example 230, 5-Trifluoromethylpyridine-2-carboxylic acid (6-{2-[4-(4-methoxy-benzyl)piperazine-1-carbonyl]-1-methyl-1H-indol-5-yloxy}pyridin-3-yl)amide dihydrobromide]
239 to 241 °C | Br.COc1ccc(CN2CCN(C(=O)c3cc4cc(Oc5ccc(NC(=O)c6ccc(C(F)(F)F)cc6Cl)cn5)ccc4n3C)CC2)cc1 [Example 231, 2-Chloro-N-(6-{2-[4-(4-methoxybenzyl)piperazine-1-carbonyl]-1-methyl-1H-indol-5-yloxy}pyridin-3-yl)-4-trifluoromethylbenzamide hydrobromide]
139 to 142 °C | COc1ccc(CNC2CCN(C(=O)c3cc4cc(Oc5ccc(NC(=O)c6ccc(C(F)(F)F)cc6)cn5)ccc4n3C)CC2)cc1 [Example 233, N-[6-(2-{4-[(4-Methoxyphenyl)methylamino]piperidine-1-carbonyl}-1-methyl-1H-indol-5-yloxy)pyridin-3-yl]-4-trifluoromethyl-benzamide]
219 to 221 °C | COc1ccc(CN2CCN(C(=O)c3cc4c(C)c(Oc5ccc(NC(=O)c6ccc(C(F)(F)F)cc6)cn5)ccc4n3C)CC2)cc1 [Example 235, N-(6-{2-[4-(4-Methoxybenzyl)piperazine-1-carbonyl]-1,4-dimethyl-1H-indol-5-yloxy}pyridin-3-yl)-4-trifluoromethylbenzamide]
162 to 164 °C | Cn1c(C(=O)N2CCN(C(=O)c3ccccn3)CC2)cc2cc(Oc3ccc(NC(=O)c4ccc(C(F)(F)F)cc4)cn3)ccc21 [Example 239, N-(6-{1-Methyl-2-[4-(pyridine-2-carbonyl)piperazine-1-carbonyl]-1H-indol-5-yloxy}pyridin-3-yl)-4-trifluoromethylbenzamide]
195 to 196 °C | COc1ccc(C(=O)N2CCN(C(=O)c3cc4cc(Oc5ccc(NC(=O)c6ccc(C(F)(F)F)cc6)cn5)ccc4n3C)CC2)cc1 [Example 240, N-(6-{2-[4-(4-Methoxybenzoyl)piperazine-1-carbonyl]-1-methyl-1H-indol-5-yloxy}pyridin-3-yl)-4-trifluoromethylbenzamide]
126 to 128 °C | COc1ccc(C(=O)N2CCN(C(=O)c3cc4cc(Oc5ccc(N(C)C(=O)c6ccc(C(F)(F)F)cc6)cn5)ccc4n3C)CC2)cc1 [Example 241, N-(6-{2-[4-(4-Methoxybenzoyl)piperazine-1-carbonyl]-1-methyl-1H-indol-5-yloxy}pyridin-3-yl)-N-methyl-4-trifluoromethylbenzamide]
135 to 137 °C | CN(C(=O)c1ccc(C(F)(F)F)cc1)c1ccc(Oc2ccc3c(c2)cc(C(=O)N2CCN(C(=O)c4ccc(C#N)cc4)CC2)n3C)nc1 [Example 242, N-(6-{2-[4-(4-Cyanobenzoyl)piperazine-1-carbonyl]-1-methyl-1H-indol-5-yloxy}pyridin-3-yl)-N-methyl-4-trifluoromethylbenzamide]
228 to 229 °C | Cn1c(C(=O)N2CCN(Cc3ccc(C#N)cc3)CC2)cc2cccc(Oc3ccc(NC(=O)c4ccc(C(F)(F)F)cc4)cn3)c21 [Example 245, N-(6-{2-[4-(4-Cyanobenzyl)piperazine-1-carbonyl]-1-methyl-1H-indol-7-yloxy}pyridin-3-yl)-4-trifluoromethylbenzamide]
279 to 282 °C (dec.) | Br.Cn1c(C(=O)N2CCN(Cc3ccc(OC(F)(F)C(F)F)cc3)CC2)cc2ccc(Oc3ccc(NC(=O)c4ccc(C(F)(F)F)cc4)cn3)cc21 [Example 250, N-[6-(1-Methyl-2-{4-[4-(1,1,2,2-tetrafluoroethoxy)benzyl]-piperazine-1-carbonyl}-1H-indol-6-yloxy)pyridin-3-yl]-4-tri-fluoromethylbenzamide hydrobromide]
265 to 267 °C (dec.) | Br.CC(C)Oc1ccc(CN2CCN(C(=O)c3cc4ccc(Oc5ccc(NC(=O)c6ccc(OC(F)(F)F)cc6)cn5)cc4n3C)CC2)cc1 [Example 251, N-(6-{2-[4-(4-Isopropoxybenzyl)piperazine-1-carbonyl]-1-methyl-1H-indol-6-yloxy}pyridin-3-yl)-4-trifluoromethoxybenzamide hydrobromide]
